These results are taken from patent US12116356B2, “N-heterocyclic five-membered ring-containing capsid protein assembly inhibitor, pharmaceutical composition thereof, and use thereof” (CHIA TAI TIANQING PHARMACEUTICAL GROUP CO., LTD., priority 2018, dated 2024).

Series [1] is described as follows: Stability of rat liver microsomes in vitro. It counts as in vitro ADME. As for the experimental part:
300 μL of a final incubation system contains 30 μL of liver microsomes (protein concentration: 0.15 mg/mL), 30 μL NADPH+MgCl2, 3 μL substrate (formulated with acetonitrile), and 237 μL PBS buffer. Duplicate incubation systems of 0.3 mL each were formulated for each species. A total volume of 270 μL of a uniformly mixed solution of the substrate and the enzyme was formulated in each tube, the solution and NADPH were pre-incubated at 37° C. for 5 minutes, respectively. Then 30 μL of the mixed solution of NADPH+MgCl2 was added for reaction. 50 μL of the reaction solution was taken out at 0, 10, 30, and 60 mins, and the reaction was terminated with 300 μL of ice acetonitrile containing an internal standard.
Sample pre-treatment: To 50 μL of the incubated sample was added 300 μL of ice acetonitrile containing diazepam as an internal standard and then precipitated. After vortexing for 5 minutes, the sample was centrifugated (12000 rpm, 4° C.) for 10 minutes. 75 μL of the supernatant was pipetted into a 96-well plate, and then diluted with 75 μL ultrapure water and mixed uniformly. 0.5 μL of the resulting solution was injected and analyzed by LC-MS/MS.

The test system of series [2] is HBV (recombinant plasmid pHBV 1.3). Nature of the series: Antiviral effect evaluation in HDI mouse model. It counts as in vivo, C57BL/6 mice. The note with it: 30 mg/kg intragastric once daily for 6 days. As for the experimental part: 6-8 week old male C57BL/6 mice was used, and each mouse was injected with purified recombinant plasmid pHBV 1.3 (10 μg) dissolved in PBS equivalent to a volume of about 10% of its body weight through the tail vein within 3-8 s. Blood was collected from the orbits of the mice at 24 hours after the plasmid injection to detect serum HBV DNA. The model mice having uniform serum DNA were selected and divided into: a blank control group, a vehicle control group, and a test substance group. Mice in each group were continuously administered intragastrically once daily for 6 days at a dose of 30 mg/kg. The mouse serum was taken on day 1, 3, 5, and 7 after the injection, and the mice were sacrificed on day 7 to take liver tissue samples. The HBV DNA copy numbers in serum and liver of the mice were detected by fluorescent quantitative PCR method.

In series [3] the test system is HBV DNA in HepG2.2.15 cells. Nature of the series: In vitro cell HBV DNA inhibitory activity (anti-HBV activity) in HepG2.2.15 cells. The format is cell-based. The note with it: Hepatitis B virus, 144 h; anti-HBV activity in HepG2.2.15 cells, 6 days treatment, intracellular capsid HBV DNA by qPCR; read-out: EC50. The procedure, abridged: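 HepG2.2.15 or HepAD38 cells on collagen-coated plates were grown 48 h, then treated 6 days with 10-point two-fold compound dilutions, with medium and compound refreshed every 72 h. Intracellular capsid HBV DNA quantified by real-time qPCR. EC50 from Ct-based inhibition by four-parameter fit.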
Background: In qPCR the cycle at which signal appears reflects the starting amount.

Series [4] can be described thus: Plasma protein binding assay (equilibrium dialysis), dog plasma. The format is in vitro ADME. As for the experimental part:
(§1) Formulation of plasma sample: 495 μL of blank plasmas of the corresponding species (mouse, rat, dog, monkey, and human) were drawn respectively, and thereto was added 5 μL of the corresponding test compound solution or positive control to give plasma sample solutions having a plasma drug concentration of the compound of 1 μM, and 10 μM, respectively (formulated with acetonitrile).
(§2) The pre-treated dialysis membrane was placed in a high-throughput equilibrium dialysis device, and 100 μL of the plasma sample solution and PBS buffer solution were drawn and added respectively to both sides of the dialysis membrane (sample side and buffer side) (n=3). After the equilibration device was sealed with a film, it was incubated at 37° C. overnight (100 rpm). After dialysis equilibrium was reached, 50 μL samples were drawn from the sample side and the buffer side, respectively, and the reaction was terminated by adding ice acetonitrile containing an internal standard.
(§3) Sample pre-treatment: To 50 μL of the plasma-side sample was added 450 μL of ice acetonitrile containing an internal standard, and then precipitated. After vortexing for 5 minutes, the sample was centrifugated (12000 rpm, 4° C.) for 10 minutes. 75 μL of the supernatant was pipetted, and 75 μL of ultrapure water was added thereto for dilution and mixed uniformly. 1 μL of the resulting solution was injected for analysis. To 50 μL of the PBS-side sample was added 250 μL of ice acetonitrile with an internal standard, and precipitated. After vortexing for 5 min, the sample was centrifugated (12000 rpm, 4° C.) for 10 min. 75 μL of the supernatant was pipetted, and 75 μL of ultrapure water was added thereto for dilution and mixed uniformly. 2 μL of the resulting solution was injected for analysis.
For orientation: Equilibrium dialysis compares concentrations on both sides of a semipermeable membrane.

Series [5] in a line: In vitro cytotoxicity (CCK-8) in HepG2.2.15 cells. The conditions noted are these: human. It counts as cell-based. The procedure, abridged: (§4)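 HepG2.2.15 or HepAD38 cells plated at 2*10^5 cells/mL on collagen I-coated wells, grown 24 h, then exposed to compound for 6 days with medium refreshed every 3 days; 0.5% DMSO vehicle control. CCK-8 absorbance read at 450 nm after 1–2 h; inhibition rate and CC50 calculated.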

Series [6] in a line: Plasma protein binding assay (equilibrium dialysis), mouse plasma. The format is in vitro ADME. As for the experimental part: as §1, §2, §3
A short description of series [7]: In vitro cytotoxicity (CCK-8) in HepAD38 cells. It counts as cell-based. The note with it: human. The procedure, abridged: as §4

As usually defined, the EC50 is the concentration needed to bring the measured effect to its halfway point. For orientation: CC50 means the concentration at which the toxic effect on the cells reaches its halfway point. A lower CC50 goes with greater toxicity to the cells.

Take `Cc1c(C(=O)Nc2ccc(F)c(C#N)c2)c(C)n(C)c1C(=O)C(=O)NC1(C(F)(F)F)COC1` [Example 25, N-(3-cyano-4-fluorophenyl)-1,2,4-trimethyl-5-(2-oxo-2-((3-(trifluoromethyl)oxetan-3-yl)amino)acetyl)-1H-pyrrole-3-carboxamide]: the “Remaining (%) at 60 min” value in series [1] stood at 52.0%. In series [2], the “Reduction levels (log10) of HBV DNA in semm on day 5” value is 1.73 log10. The concentration for a half-maximal effect (EC50) in series [3] is < 0.01 µM. The Binding rate in series [4] (1 μM) is recorded as 87.0%; in series [4] (10 μM), 86.8%; in series [6] (1 μM) it was 76.5%; in series [6] (10 μM), 74.7%. Moreover, the CC50 at 6 days in series [5] and in series [7] was > 100 µM in each case.

As for `Cc1c(C(=O)Nc2ccc(F)c(C#N)c2)c(C)n(C)c1C(=O)C(=O)N[C@@H](C)C(F)(F)F` [Example 12], in series [1], the “Remaining (%) at 60 min” value stood at 65.0%. Moreover, the “Reduction levels (log10) of HBV DNA in semm on day 5” value in series [2] was 2.17 log10. The EC50 in series [3] is < 0.01 µM. In addition, the Binding rate in series [4] (1 μM) amounted to 85.9%; in series [4] (10 μM), 85.9%; in series [6] (1 μM), 75.3%; in series [6] (10 μM), 74.5%. In addition, the CC50 at 6 days in series [5] and in series [7] was > 100 µM throughout.
